Measured values from article PMC7168207, “Dibasic Derivatives of Phenylcarbamic Acid as Prospective Antibacterial Agents Interacting with Cytoplasmic Membrane” (Antibiotics, 2020).
Values joined by “and” are separate entries in the source; they are usually repeats but may differ in a detail not shown here. Identical values can stand only once. Like-named read-outs stand apart in the source and are kept apart here.

Experiments:
[1] = set-up: method as in PMID 30274224; conditions: cited from earlier work
[2] = tested on: human monocytic leukemia THP-1 cells; assay: in vitro antiproliferative assay (WST-1); type: cell-based; conditions: THP-1 cells, WST-1, 24 h, read-out: Tox IC50
Procedure: The preliminary in vitro screening of the antiproliferative effect of the investigated compounds was performed using a Water Soluble Tetrazolium salts-1 (WST-1) assay kit and a human monocytic leukemia THP-1 cell line by means of the method described recently. The principle of the WST-1 assay kit is the […] mitochondrial dehydrogenases by antiproliferative compounds. The activity of this enzyme directly correlates with the number of metabolically active cells in the culture. The antiproliferative effect was evaluated as the IC50 value (the concentration of the compound causing 50% inhibition of cell proliferation).
Human monocytic leukemia THP-1 cells were used for in vitro antiproliferative assay. Cells were obtained from the European Collection of Cell Cultures (ECACC, Salisbury, UK) and routinely cultured in RPMI (Roswell Park Memorial Institute) 1640 medium supplemented with 10% fetal bovine serum, 2% L-glutamine, 1% penicillin, and streptomycin at 37 °C with 5% CO2. Cells were passaged at approximately one-week intervals. The antiproliferative activity of the compounds was determined using a Water Soluble Tetrazolium Salts-1 (WST-1, 2-(4-iodophenyl)-3-(4-nitrophenyl)-5-(2,4-disulfophenyl)-2H-tetrazolium) assay kit (Roche Diagnostics, Mannheim, Germany) according to the manufacturer’s instructions. The tested compounds were dissolved in DMSO and added in various compound concentrations to the cell suspension in the culture RPMI 1640 medium. The maximum concentration of DMSO in the assays never exceeded 0.1%. Subsequently, the cells were incubated at 37 °C with 5% CO2 for 24 h. For WST-1 assays, cells were seeded into 96-well plates (5 × 10^4 cells/well in 100 μL culture medium) in triplicate in serum-free RPMI 1640 medium, and measurements were taken 24 h after the treatment with the compounds. The median inhibition concentration values, IC50, were deduced through the production of a dose-response curve. All data were evaluated using GraphPad Prism 5.00 software (GraphPad Software, San Diego, CA, USA).

[3] = tested on: vancomycin-resistant enterococci VRE 342B; assay: MIC, broth microdilution; type: cell-based, Enterococcus faecalis; conditions: VRE1 = VRE 342B; for MIC: read-out: MICs
Procedure: (§1) The modified broth microdilution method was used for in vitro evaluation of minimum inhibitory concentration. A small portion of bacterial colony cultivated overnight onto nutrient agar (Oxoid, Basingstoke, UK) with 5% bovine blood was suspended in sterile phosphate-buffered saline to get cell density 0.5 McFarland. This inoculum was diluted to reach the final concentration of bacterial cells 5 × 10^5 CFU/mL in the wells. […] For plates with staphylococci, cation adjusted Mueller–Hinton (CaMH) broth (Oxoid) was used; enterococci were cultivated in brain heart infusion (BHI, Oxoid). […] A drug-free control and a sterility control were included. Inoculated plates were incubated in aerobic atmosphere at 37 °C overnight. […] After evaluation of MICs, 10 µL of aliquots from the wells were put onto Mueller–Hinton agar. The agar plates were cultivated at 37 °C for 24 h. The minimum bactericidal concentration (MBC) was defined as the lowest concentration of the compound that killed 99.9% of the bacteria compared to the starting inoculum.

[4] = tested on: vancomycin-resistant enterococci VRE 368; assay: MIC, broth microdilution; type: cell-based, Enterococcus faecalis; conditions: VRE2 = VRE 368; for MIC: read-out: MICs
Procedure: as §1

E. faecalis ATCC 29212 = assay: MIC, broth microdilution; type: cell-based, Enterococcus faecalis; conditions: EF = E. faecalis ATCC 29213
Procedure: as §1

[5] = tested on: vancomycin-resistant enterococci VRE 725B; assay: MIC, broth microdilution; type: cell-based, Enterococcus faecalis; conditions: VRE3 = VRE 725B; for MIC: read-out: MICs
Procedure: as §1

[6] = tested on: methicillin-resistant S. aureus 63718; assay: MIC, broth microdilution; type: cell-based, Staphylococcus aureus; conditions: MRSA1 = S. aureus 63718; for MIC: read-out: MICs
Procedure: as §1

[7] = tested on: methicillin-resistant S. aureus SA 630; assay: MIC, broth microdilution; type: cell-based, Staphylococcus aureus; conditions: MRSA2 = SA 630; for MIC: read-out: MICs
Procedure: as §1

S. aureus ATCC 29213 = assay: MIC, broth microdilution; type: cell-based, Staphylococcus aureus
Procedure: as §1

[8] = tested on: methicillin-resistant S. aureus SA 3202; assay: MIC, broth microdilution; type: cell-based, Staphylococcus aureus; conditions: MRSA3 = SA 3202; for MIC: read-out: MICs
Procedure: as §1

[9] = set-up: method as in PMID 30274224; conditions: isocratic RP-HPLC, extrapolated lipophilicity index; cited from earlier work
[10] = set-up: method as in PMID 30274224; conditions: methanolic solutions, c = 8.0 × 10^−5 M; cited from earlier work
[11] = tested on: Candida albicans CCM 8261; assay: minimum fungistatic concentration, RPMI 1640; type: cell-based; conditions: CCM8261, CA = C albicans CCM 8261, 48 h
Procedure: Fungistatic activity was tested similarly in RPMI (Roswell Park Memorial Institute) 1640 medium (Sigma, Pool, UK). […] A growth control and sterility control were included. The colonies of C. albicans grown overnight on Sabourad dextrose agar were suspended in sterile phosphate-buffered saline (PBS) to get cell density 0.5 McFarland. The inoculum was diluted to get a final concentration of 10^3 CFU/mL in the wells. Plates were inoculated and cultivated at 37 °C for 48 h. The minimum fungistatic concentration was visually evaluated as the lowest concentration of a tested compound, which inhibited 100% of yeast growth. 5-Flucytosin (Sigma, UK) was used as a positive control.

[12] = tested on: S. aureus ATCC 29213 biofilm; assay: biofilm susceptibility / eradication of preformed biofilm (MTT); type: cell-based, Staphylococcus aureus; conditions: 80% reduction of metabolic activity of preformed biofilm, 24 h
Procedure: (§2) The ability of compounds 1f, 1g, and 1h to inhibit biofilm growth and destroy the matured biofilm of S. aureus ATCC 29213 was investigated. The inhibitory activity was studied by the method with crystal violet. The activity to disrupt matured biofilm was evaluated as a decrease of metabolic activity using the MTT assay.
Biofilms were grown as described above but without the presence of the compounds. After 48 h of incubation at 37 °C, the contents of the wells were removed, and the plates were washed three times by sterile PBS. After washing, 100 µL of tested compounds in CaMH were added to the wells. […] A growth control containing 2.5% of DMSO in CaMH was included. The plates were incubated at 37 °C for 24 h, then the solutions of compounds were removed, and the plates were gently washed three times by sterile PBS. Bacterial viability was analyzed using 100 µL of 0.05 mg/mL MTT (3-(4,5-dimethylthiazol-2-yl)- 2,5-diphenyltetrazolium bromide) in PBS in each well. The plates with MTT were incubated at 37 °C for 1–2 h in darkness, until the blue formazan crystals appeared. MTT solution was removed and the plates were washed once by PBS. Crystals of formazan were dissolved using 17% sodium dodecysulphate in 40% dimethylformamid. The absorbance at 570 nm was measured and the percentage of eradication was counted according to the equation (3) % of eradication = 100 − OD570S/OD570C × 100 where OD570S is the absorbance of the sample at 570 nm and OD570C is the absorbance of the growth control at 570 nm. The minimum biofilm eradication concentration was the lowest concentration of the compound, which reduced the metabolic activity of the biofilm by 80% compared to the growth control. The experiment was made in duplicate and repeated at least three times.

[13] = tested on: S. aureus ATCC 29213 biofilm; assay: biofilm inhibition assay (crystal violet); type: cell-based, Staphylococcus aureus; conditions: ≥80% inhibition of biofilm formation, 48 h
Procedure: as §2
The plates were inoculated by inoculum of S. aureus ATCC 29213 grown in TSB + 2% glucose to exponential phase. Before the inoculation of the plate, the original inoculum was diluted to 1 McFarland and then 1:100 in fresh TSB + 2% glucose, to reach the final concentrations in the wells of […]. […] The plates were incubated at 37 °C for 48 h. After incubation, the contents of the wells were removed, and the plates were washed three times by sterile PBS. After drying, 125 μL of 0.5% crystal violet was added to each well and the plates were stained at room temperature for 20 min. Then the dye was removed, and the plates were washed three times by sterile PBS. The colored biofilm was detached from the wells using 33% solution of acetic acid. The absorbance at 595 nm was measured. As a blank, a non-inoculated plate treated in the same way was used. […] The minimum biofilm inhibitory concentration was the lowest concentration of the compounds, which inhibited the growth of 80% bacteria compared to the growth control. The experiment was made in duplicate and repeated at least three times.

[14] = Enterococcus faecalis, ATCC 29212 / ATCC 29213
[15] = Staphylococcus aureus, ATCC29213, SA = S. aureus ATCC 29213, read-out: MICs

Row | MIC ([3]; Enterococcus) | MIC ([4]; Enterococcus) | MIC (E. faecalis ATCC 29212; [14]) | MIC ([5]; Enterococcus) | MIC ([6]; Staphylococcus aureus) | MIC ([7]; Staphylococcus aureus) | MIC (S. aureus ATCC 29213; [15]) | MIC ([8]; Staphylococcus aureus) | MIC [11] | SMILES | γ (surface tension, relative surface activity) [1] [N/m] | IC50 ([2]; Homo sapiens, THP-1, 24 h) [µM] | log kw [9] | log ε2 (Ch-T) [10] | IC50 [2] [µM] | further results
1 | 32 µg/mL and 61.5 µM | 64 µg/mL and 122 µM | 32 µg/mL and 61.5 µM | 16 µg/mL and 30.7 µM | 32 µg/mL and 61.5 µM | 64 µg/mL and 122 µM | 128 µg/mL and 245 µM | 64 µg/mL and 122 µM | > 128 µg/mL and > 245 µM | CCCCOc1cccc(NC(=O)OC(CN(CCC)CCC)CN2CCCCCC2)c1 (stereo not shown) [1m] | 0.06298 | 4.9 ± 0.19 | 4.7099 | 4.09 | – | –
2 | 32 µg/mL and 59.9 µM | 64 µg/mL and 119 µM | 16 µg/mL and 29.9 µM | 16 µg/mL and 29.9 µM | 64 µg/mL and 119 µM | 128 µg/mL and 239 µM | 128 µg/mL and 239 µM | 256 µg/mL and 478 µM | > 128 µg/mL and > 239 µM | CCCCCOc1cccc(NC(=O)OC(CN(CCC)CCC)CN2CCCCCC2)c1 (stereo not shown) [1n] | 0.06154 | 4.99 ± 0.99 | 5.2087 | 4.18 | – | –
3 | 32 µg/mL and 58.3 µM | 256 µg/mL and 466 µM | 16 µg/mL and 29.2 µM | 8 µg/mL and 14.6 µM | 128 µg/mL and 233 µM | > 256 µg/mL and > 466 µM | > 256 µg/mL and > 466 µM | > 256 µg/mL and > 466 µM | > 128 µg/mL and > 233 µM | CCCCCCOc1cccc(NC(=O)OC(CN(CCC)CCC)CN2CCCCCC2)c1 (stereo not shown) [1o] | 0.05925 | < 6.5 | 5.6569 | 4.01 | 4.71 ± 0.07 | –
4 | 64 µg/mL and 113 µM | 256 µg/mL and 455 µM | 8 µg/mL and 14.2 µM | 16 µg/mL and 28.4 µM | 256 µg/mL and 455 µM | > 256 µg/mL and > 455 µM | > 256 µg/mL and > 455 µM | > 256 µg/mL and > 455 µM | > 128 µg/mL and > 227 µM | CCCCCCCOc1cccc(NC(=O)OC(CN(CCC)CCC)CN2CCCCCC2)c1 (stereo not shown) [1p] | 0.05692 | < 6.5 | 6.1749 | 4.20 | 6.32 ± 0.58 | –
5 | – | – | – | – | – | – | – | – | – | CCCCCCCCCCCCOS(=O)(=O)[O-].[Na+] [SDS, sodium dodecyl sulfate, reference compound] | – | – | – | – | – | MICs [3]: 256 µg/mL; MIC [3]: 887 µM; MICs [4]: 128 µg/mL; MIC [4]: 443 µM; MIC (E. faecalis ATCC 29212): 443 µM; MICs (E. faecalis ATCC 29212): 128 µg/mL; MICs [5]: 128 µg/mL; MIC [5]: 443 µM; MBEC80 (minimum biofilm eradication concentration) [12]: 128 µg/mL; MICs [6]: 128 µg/mL; MIC [6]: 443 µM; MICs [7]: 64 µg/mL; MIC [7]: 222 µM; MICs (S. aureus ATCC 29213; SA = S. aureus ATCC 29213): 128 µg/mL; MIC (S. aureus ATCC 29213; SA = S. aureus ATCC 29213, read-out: MICs): 443 µM; MIC (S. aureus ATCC 29213; Table 7, planktonic cells of S. aureus ATCC 29213): 128 µg/mL; MICs [8]: 64 µg/mL; MIC [8]: 222 µM; MBIC80 (minimum biofilm inhibitory concentration) [13]: 32 µg/mL
